This is an account of results in patent publication US11571454B2, “Anticancer peptides that synergistically enhance chemotherapeutic potency” (The Penn State Research Foundation, priority 2017, dated 2023).

Series [1] concerns polymicrobial panel (six bacterial lines). The series is described as follows: Antimicrobial activity against polymicrobial panel. The class given is cell-based.
The subject of a further series is B. subtilis (168). The conditions noted are these: 24 hours, Gram Positive.
The test system of series [2] is OVCAR-3 ovarian carcinoma cells.
Series [3] deals with A549 (lung carcinoma) cells. Kind of series: MTT cytotoxicity assay, A549. The class given is cell-based, human. The method, then:
All cells were cultured using standard culture conditions at 37° C., 5% CO2, and 95% humidity. A549 (CCL-185), OVCAR-3 (HTB-161), T24 (HTB-4), and NCI/ADR-RES were cultured in RPMI-1640 supplemented with 10% v/v fetal bovine serum (FBS), 2 mM L-glutamine (L-Gln), 10,000 units penicillin/mL, 10 mg/mL streptomycin, and 25 μg/mL amphotericin B. HUVEC (PCS-100-010) cells were cultured in Vascular Cell Basal Media (PCS-100-030) supplemented with an Endothelial Cell Growth Kit-VEGF (PCS-100-041) and 10 μg/mL gentamycin in culture flasks coated with 0.1% gelatin by incubating at 37° C. for 15 min. NL20 (CRL-2503) cells were cultured in Ham's F12 supplemented with 1.5 g/L sodium bicarbonate, 2.7 g/L glucose, 2.0 mM L-glutamine, 0.1 mM nonessential amino acids, 0.005 mg/ml insulin, 10 ng/ml epidermal growth factor, 0.001 mg/ml transferrin, 500 ng/ml hydrocortisone and 4% fetal bovine serum, as advised by American Type Culture Collection (ATCC).
Viability was calculated by comparing to an untreated control.
All experiments were performed with n>6.
Cell viability experiments were completed n>6 in two independent experiments and analyzed using GraphPad Prism 8 to fit curves and calculate IC50 values using inhibitor vs. normalized response non-linear regression model. IC50 values are reported as mean values±standard deviation. […] Pore size frequency distribution was completed by ImageJ FIJI on 4 independent cells and n=30 pores from SEM images. UV-Vis OD600 and CD spectra are means of 5 and 3 replicates, respectively and reported as mean±standard deviation. Individual UV-Vis and CD spectra, as well as fluorescent confocal and TEM micrographs, shown are representative plots from three individual experiments. CD data is with a variance in ellipticity of 0.2 millidegrees at each wavelength. Relative fluorescence data calculated from fluorescent confocal images represents the average of 10 independent measurements±standard deviation. For spheroid volume analysis, a Kruskal-Wallis test and Dunn's multiple comparisons test was performed using GraphPad Prism 8.
In general terms: Tetrazolium assays rely on reduction of a dye to a coloured formazan, in cell work by metabolically active cells.

Series [4] concerns T24 (urinary bladder transitional cell carcinoma) cells. The series is described as follows: MTT cytotoxicity assay, T24.
Series [5] can be described thus: Liposome disruption (OD600), cancer membrane model. Particulars: OD600 and visual flocculates. On the procedure:
(§1) Liposomes were prepared by extrusion techniques according to previous methods. Briefly, all liposomes were prepared in 2×concentration (5 mM). Healthy and cancer liposomal mimicking membranes were prepared with 72:23:[…] phosphatidylcholine (POPC):phosphatidylethanolamine (DOPE):phosphatidylserine (POPS) lipids, respectively. The lipids dissolved in chloroform were mixed in proper molar proportions before being evaporated under a stream of argon. The lipid film was then dried completely by lyophilization overnight. […] The extruded liposomes were then dialyzed in 3500 MWCO dialysis cassettes against water. Parallel optical density experiments were conducted measuring the absorbance at 600 nm (OD600) to track the kinetics and specificity of membrane disruption. Measurements were taken every 30 seconds for the first 10 min., followed by measurements every minute until 15 min.

The test system of a further series is MR S. aureus. The conditions noted are these: 24 hours, Gram Positive.
The test system of the next series is E. coli. The conditions noted are these: 24 hours, Gram Negative.
The nature of series [6]: Liposome disruption (OD600), normal membrane model. The method, then:
as §1

Marks after values point to notes of the source that are not given here.

On to H-KRWHWWRRHWVVW-NH2 [MAD1], for which, in series [1], the “antimicrobial activity against polymicrobial panel” value is given as “bactericidal activity”. Moreover, the “MIC (μM) B. subtilis (168)” value against B. subtilis (168) turned out to be 0.2 µM. For the same substance, the “Therapeutic Index OVCAR-3” value in [2] (IC50-HUVEC/IC50-OVCAR-3) stood at 7. Besides, the IC50 is 14.2 µM in [2] (read-out: Cancerous (IC50, μM) OVCAR-3, 48 hours treatment, MTT); 36.2 µM in series [3] (48 hours treatment, MTT, read-out: Cancerous (IC50, μM) A549); over 100 µM in series [4] (read-out: Cancerous (IC50, μM) T24, 48 hours treatment, MTT). The “Therapeutic Index A549” value in series [3] (IC50-HUVEC/IC50-A549) stood at 2.8. Besides, the “cytotoxic activity against A549” value in series [3] (result in words) is “moderate activity”. For the same substance, the “cytotoxic activity towards T24” value in series [4] (result in words) was “inactive”. In addition, the “disruption/lysis of cancer membrane liposomes” value in [5] was “significant membrane destabilization and subsequent lysis”. Besides, the “MIC (μM) MR S. aureus” value in the series with MR S. aureus is >80^a μM. In addition, the “MIC (μM) E. coli” value against E. coli came to 25 µM. For the same substance, the “disruption/interaction with normal (healthy) membrane liposomes” value in series [6] was “did not lyse”.

The term IC50 denotes the concentration that gives 50% inhibition.
